Consider three compounds from patent US20260049064A1, “PROTEIN:PROTEIN INTERACTION INHIBITORS” (Purdue Research Foundation, priority 2022, published 2026).

SMILES strings stand for the structures.

Holding throughout (format): cell-based
The test system of data set [1] is LNCaP cells. The data set can be described thus: MTT assay / growth of LNCaP cells. Conditions: for IC50: 72 hours treatment. As for the experimental part: LNCaP cells were seeded at 7,000 cells per well of a 96-well cell culture plate and incubated 24 hours to allow for attachment. Test compounds were diluted in RPMI-1640/25% DMSO pre-dilutions and added to respective wells of the assay plate to maintain constant concentration of 0.25% DMSO. After addition of compounds, cells were returned to incubator (37° C., 5% CO2) for 72 hours. Following incubation, assay plates were removed from incubator and media aspirated. 30 μL complete RPMI supplemented with 0.5 mg/mL MTT (Sigma) was added to the plate, and plate returned to incubator for 4 hours. Plates were removed, and 88 μL DMSO was added. Plates were shaken at 700 rpm for 1 minute and read on spectrophotometer at 570 nm.
A general note: Tetrazolium assays rely on reduction of a dye to a coloured formazan, in cell work by metabolically active cells.

Data set [2] has as its system TP53. The data set can be described thus: RT-qPCR expression of TP53 in LNCaP cells. Conditions: 500 nM, 72 hours. As for the experimental part: (§1) LNCaP cells were seeded to either 6 cm or 10 cm dishes at 800,000 or 2,200,000 cells/dish respectively. Cells were allowed to attach for 24 hours and then subsequently treated with either compound 17 (500 nM) or DMSO for 72 hours. Cells were then harvested with Trizol reagent (Ambion) and RNA integrity was verified via agarose gel electrophoresis. […] was utilized following manufacturer instructions and as described previously, as described in Deng et al., Oncogene 2017, 36 (9), 1223-123; Hsu et al., Mol. Cell. Endocrinol. 2013, 372 (1-2), 12-221; and Zhang et al., Biochim. Biophys. Acta 2014, 1839 (11), 1330-1340, each of which is incorporated herein by reference in its entirety for its teachings regarding same. RT-qPCR was performed with FastStart Universal SYBR Green Master Mix (Thermo Fisher Scientific) and detected on a QuantStudio 6 Flex with QuantStudio Real-Time PCR control software (Thermo Fisher Scientific). QuantStudio Design and Analysis software (Thermo Fisher Scientific) was used for data analysis. Technical triplicates were run for all samples, samples without detectable amplification were deemed undetected. Primer sets were validated via melt curve and agarose gel analysis of RT-qPCR product. AR primers were used as described in Deng et al., Oncogene 2017, 36 (9), 1223-123. […]

The subject of data set [3] is androgen receptor (AR) gene. The data set can be described thus: RT-qPCR expression of AR in LNCaP cells. Conditions: 500 nM, 72 hours. As for the experimental part:
as §1
A general note: In qPCR the cycle at which signal appears reflects the starting amount.

For data set [4], the system named is H4R3me2s. The data set can be described thus: Global histone H4R3me2s western blot in LNCaP cells. As to conditions: 72 hours. As for the experimental part: For global histone H4R3 and H4R3me2s western blots, cell lysate was prepared in RIPA buffer (10 mM Tris-HCl pH 8.0, 5 mM EDTA, 1% Triton X-100, 0.1% sodium deoxycholate, 0.1% sodium dodecyl sulfate, 150 mM sodium chloride, and 5 μg/mL each chymostatin, leupeptin, pepstatin A, and antipan in DMSO, with 1 mM PMSF and total soluble protein was quantified using Bradford assay. 100 μL lysate was combined with 100 μL 2×SDS buffer, and 20 μg total lysate was loaded into the wells of a 15% acrylamide/bisacrylamide gel. The gel was run for 60 min at 125 V and transferred onto nitrocellulose membrane for 45 min at 100 V. Anti-H4R3 rabbit pAb (Abcam, ab10158) or anti-H4R3me2s rabbit pAb (Abcam, ab5823) was diluted 1:1000 in PBST and incubated overnight at 4° C. Secondary IRDyeR 800CW Donkey anti-Rabbit IgG Secondary Antibody (Li-Cor, 926-32213) was diluted 1:20,000 in PBST and incubated with the membrane, which was then imaged via LiCor Odyssey CLx imager and analyzed with ImageStudioLite software (Li-Cor). Integrated intensity of H4R3me2s band was normalized to H4R3 to determine relative abundance of H4R3me2s across DMSO and Cpd 17-treated samples.
A general note: A western blot detects proteins with antibodies after separation by electrophoresis.

In data set [5] the test system is A549 cells. The data set can be described thus: IC50 in A549 NSCLC cell line. Conditions: 72 hours treatment.
Data set [6] has as its target T1, PRMT5:MEP50 protein-protein interaction (Homo sapiens, UniProt O14744). The data set can be described thus: BiFC drug screen of PRMT5:MEP50 interaction in COS-1 cells. The arrangement: expressed in transfected cells; host or cells: COS-1. As to conditions: for rank in BiFC screen (inhibition of PRMT5:MEP50): 18 hours. As for the experimental part: (§2) BiFC Drug Screens: COS-1 cells were grown in DMEM and seeded to 50,000 cells/well of a 12-well plate and allowed to attach for 24 hours. Cells were then transfected with three plasmids pMyc-VN155-PRMT5, pHA-VC-MEP50, and pFLAG-NLS-CFP to visualize the interaction between PRMT5:MEP50. For BiFC screens, the COS-1 cells were treated with compound or DMSO to final concentration (10 μM for compound 1-12 screen and 0.25, 0.50, 0.75, 1.0, and 5.0 μM or subsequent compound 8 screen) six hours after transfection and returned to the incubator. Following 24 hours after transfection, cells were imaged on a Nikon TE-2000U microscope and images for CFP, YFP, and phase contrast were acquired using MetaMorph software (Nikon) with 20× objective. Images were analyzed with ImageJ^70. Regions of Interest (ROI) were selected around each cell, and mean intensity was measured for each selection. A YFP:CFP ratio was calculated for DMSO as well as control treatment cells. The YFP:CFP ratio was then normalized to that of DMSO to generate the BiFC Efficiency score. The lower score indicated less PRMT5:MEP50 PPI detected in a given cell or treatment group. Inhibition (% Inhibition) is calculated as a percent of 100%−the BiFC Efficiency. Referring to FIGS. 6A-6C, for the BiFC screen of compounds 13-22 (including 8a and 8b), COS-1 cells were transfected for 24 hours, treated with 0.5 μM of compounds for 18 hours, and then imaged as described above. Referring to FIG. 6C, for the BiFC screen of compounds 23-26 (including 8a and 8b), COS-1 cells were transfected for 24 hours, treated with 0.25 M of compounds for 18 hours, and then imaged as described above. BiFC drug screens were performed in single biological replicate as a high throughput screen to produce ranked order of compounds, although multiple biological replicate data was used whenever available.

Data set [7] relates to Involucrine (IVL) gene. Briefly: RT-qPCR expression of IVL in LNCaP cells. As to conditions: 500 nM, 72 hours. As for the experimental part: as §1
For data set [8], the system named is RB1. The data set can be described thus: RT-qPCR expression of RB1 in LNCaP cells. Conditions: 500 nM, 72 hours. As for the experimental part:
as §1

Data set [9] concerns the target T1, PRMT5:MEP50 protein-protein interaction. Briefly: Co-immunoprecipitation western blot in LNCaP cells. Conditions: 500 nM, 24 hrs, three biological replicates. As for the experimental part:
LNCaP cells were treated with either DMSO or compound 17 (500 nM, 24 hrs) and harvested for Co-IP and WB in lysis buffer composed of 50 mM Tris-HCl, pH 7.4, 100 mM NaCl, 10 mM EDTA, 0.1% Triton X-100, 1 mM DTT, 1 mM PMSF, and 5 μg each of chymostatin, leupeptin, pepstatin A, and […]. Cells were lysed over 1 hour rotating in 4° C. and supernatant cleared. Total lysate (1 mg/mL) was used for Co-IP with 4 μg rabbit anti-PRMT5 pAb (Millipore Sigma 07-405), rabbit anti-MEP50 pAb (Cell Signaling Technologies S2823S) or normal rabbit IgG (Millipore Sigma N01-100 UG) overnight. Antibody-bound proteins were precipitated with Pierce Protein A agarose beads (Thermo Scientific 20333). Antibodies and immunoprecipitated proteins were prepared for western blot by adding 50 μL 2×SDS buffer, boiling at 95° C. for 5 min, and storing at -80° C. or proceeding to western blot. Co-IP product, input sample, or ladder were loaded into a 10% acrylamide/bisacrylamide gel (20 μL Co-IP, 20 μL input (0.4% total), 5 μL ladder per lane). […] Band Intensity was determined with ImageLab software and ImageJ.

Data set [10] concerns PTEN. The data set can be described thus: RT-qPCR expression of PTEN in LNCaP cells. Conditions: 500 nM, 72 hours. As for the experimental part:
as §1

Data set [11] deals with COS-1 cells. Briefly: Cell death seen in COS-1 cells during the BiFC screen. Conditions: 10 μM. As for the experimental part:
as §2, with “Referring to FIGS. 6A-6C, for the BiFC screen of compounds 13-22 (including 8a and 8b), COS-1 cells were transfected for 24 hours, treated with 0.5 μM of compounds for 18 hours, and then imaged as described above. Referring to FIG. 6C, for the BiFC screen of compounds 23-26 (including 8a and 8b), COS-1 cells were transfected for 24 hours, treated with 0.25 M of compounds for 18 hours, and then imaged as described above. BiFC drug screens were performed in single biological replicate as a high throughput screen to produce ranked order of compounds, although multiple biological replicate data was used whenever available.” left out

T1 sequence (O14744 whole entry): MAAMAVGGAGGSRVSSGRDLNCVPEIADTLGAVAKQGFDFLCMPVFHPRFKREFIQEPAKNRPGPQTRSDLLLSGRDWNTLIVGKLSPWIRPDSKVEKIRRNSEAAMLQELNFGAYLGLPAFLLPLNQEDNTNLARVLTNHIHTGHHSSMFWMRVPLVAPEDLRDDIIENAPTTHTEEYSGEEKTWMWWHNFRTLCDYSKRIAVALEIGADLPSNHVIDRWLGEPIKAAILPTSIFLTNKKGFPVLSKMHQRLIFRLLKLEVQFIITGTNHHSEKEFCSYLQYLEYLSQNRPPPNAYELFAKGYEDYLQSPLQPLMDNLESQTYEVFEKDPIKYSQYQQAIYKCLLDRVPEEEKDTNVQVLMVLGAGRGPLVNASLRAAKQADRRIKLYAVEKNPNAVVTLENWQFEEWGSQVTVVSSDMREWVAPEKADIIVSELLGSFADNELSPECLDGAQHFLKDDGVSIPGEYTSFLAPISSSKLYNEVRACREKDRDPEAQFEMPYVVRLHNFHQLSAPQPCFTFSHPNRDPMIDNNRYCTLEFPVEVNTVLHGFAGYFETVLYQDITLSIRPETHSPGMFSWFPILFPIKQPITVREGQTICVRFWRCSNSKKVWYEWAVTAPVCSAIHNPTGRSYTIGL

Turning to `CCc1noc(C)c1COc1cccc(C(=O)NNC(=O)c2ccc3ccccc3n2)c1` [compound 17, N′-(3-((3-ethyl-5-methylisoxazol-4-yl)methoxy)benzoyl)quinoline-2-carbohydrazide], the IC50 is 430 nM in [1]; less than 450 nM in data set [1] (Homo sapiens, LNCaP, 72 h); 447 nM in [5]; less than 450 nM in data set [5] (Homo sapiens, A549, 72 h). Also, in data set [1] (LNCaP cells, 250 nM, 500 nM and 1000 nM, 72 hours), the “suppression of growth and induction of cell death” value is “both suppression of growth and induction of cell death in a dose-dependent manner”. Further, the “expression of TP53” value in data set [2] is recorded as “to some extent TP53, albeit statistically insignificant”. Also, the “expression of PRMT5:pICln-regulated AR gene” value in [3] is “without significantly altering expression”. The “dose dependence of global H4R3me2s levels” value in data set [4] (LNCaP cells, 250, 500 and 1000 nM) is on record as “decreased in a dose-dependent manner”. Besides, the “decrease of global H4R3me2s” value in data set [4] (LNCaP cells) is 65%. Also, the “rank in BiFC screen (inhibition of PRMT5:MEP50)” value was “most effective” in data set [6] (250 nM) and “top four inhibitors” in data set [6] (500 nM). The “expression of PRMT5:MEP50-regulated IVL gene” value in data set [7] is “significantly de-represses”. Moreover, the “expression of RB1” value in data set [8] is listed as “upregulation”. In [9], the “decrease in amount of MEP50 co-immunoprecipitated with PRMT5 bait” value stood at 65.4%. Moreover, the “expression of PTEN” value in data set [10] is reported as “upregulation”.
Regarding `Cc1noc(C)c1COc1cccc(C(=O)NNC(=O)c2ccc(C(F)(F)F)cn2)c1` [compound 15, N′-(3-((3,5-dimethylisoxazol-4-yl)methoxy)benzoyl)-5-(trifluoromethyl)picolinohydrazide], the “rank in BiFC screen (inhibition of PRMT5:MEP50)” value in data set [6] (500 nM) is “top four inhibitors”.
In data set [1] (Homo sapiens, LNCaP, 72 h), `Cc1noc(C)c1COc1cccc(C(=O)NNC(=O)c2ccc3ccccc3n2)c1` [compound 8, N′-(3-((3,5-dimethylisoxazol-4-yl)methoxy)benzoyl)quinoline-2-carbohydrazide] gave an IC50 of 1660 nM. Besides, the inhibition at 0.25 µM in data set [6] (0.25 μM, read-out: inhibition of the BiFC efficiency) was 41%. Moreover, in data set [6] (500 nM), the “rank in BiFC screen (inhibition of PRMT5:MEP50)” value is “top four inhibitors”. In addition, in data set [6] (0.25-5 μM), the “dose-response of BiFC efficiency inhibition” value is recorded as “dose-dependent manner”. Moreover, in data set [11], the “cell death on treatment in the BiFC assay” value is on record as “significant cell death”.

One may read the IC50 as the concentration that gives 50% inhibition. As usually defined, the inhibition is the drop in the measured response relative to a control, in per cent.
